Reference: patent US8202995B2, “Pharmaceutically acceptable salts of aporphine derivatives and carboxyl group-containing agents and methods for preparing the same” (Standard Chem. & Pharm. Co., Ltd., priority 2008, dated 2012)

Assays:
[1] = Oxygen radical absorbing capacity, Method B (fluorescenin fluorescence decay, AAPH); assay type: biochemical; details: test substance 1 μM, 18.75 mM AAPH, 0.06 μM fluorescenin, 37° C., pH 7.4, FIGS. 10-16
Experimental: In order to evaluate the oxygen radical absorbing capacity of test compounds. The automated assay was carried out as described in a previous report by Gillespie and co-workers (Gillespie et al., 2007). The experiment was conducted at 37° C. under pH 7.4 condition with a blank sample in parallel. Briefly, 2, 2′-azobis (2-amidinopropane) dihydrochloride (AAPH) was used as a peroxyl generator. The final reaction mixture for each black microplat in a 96-well microplate assay contained 0.06 μM fluorescenin, 18.75 mM AAPH and appropriate test substance (1 μM) in 75 mM phosphate buffer. Test substance was directly dissolved in DMSO and diluted with 75 mM potassium phosphate buffer (pH 7.4) for analysis. The analyzer was programmed to record the fluorescence of fluorescenin every minute after the addition of AAPH. All fluorescent measurements are expressed relative to the initial reading (excitation at 485 nm and emission at 530 nm) on a FLUOstar Galaxy plate reader (Roche Diagnostic System Inc., Branchburg, N.J.). Raw data were exported from the Fluostar Galaxy software to an Excel (Microsoft, Roselle, Ill.) sheet for further calculations. All the reaction mixtures were prepared in duplicate, and at least three independent assays were performed for each sample. (Gillespie, K M et al., Nature Protocols 2007; 2: 867-870.)

[2] = Free radical scavenging of 1,1-diphenyl-2-picryl-hydrazyl (DPPH); assay type: biochemical; details: DPPH 100 μM, 30 min, absorbance at 517 nm, FIGS. 2-8
Experimental: After 30 min, the absorbance (O.D.) was monitored spectrophotometrically at 517 nm. The activity in inhibiting free radical DPPH results in the decrease of absorbance.

[3] = Protection from peroxy radical-induced damage, Method A (β-phycoerythrin fluorescence, AAPH); assay type: biochemical; details: test compound 5×10^−6 M, AAPH 25 mM, β-phycoerythrin 5 nM, pH 7.4, FIG. 9
Description: In order to evaluate the effect of test compounds in scavenging hydrophilic peroxy radical, the experiment was executed with reference to the method described by Tsuchiya et al. (Methods Enzymol 1992, 213: 460-472). In the experiment, peroxides will react with fluorescent substances and thus inflect observed fluorescence intensity. Thereby, the effect of test compounds in free radical scavenging can be evaluated by measuring the variation of the fluorescence intensity after the addition of test compounds.
First, to a silicate tube was added a phosphate solution (2 ml, pH 7.4), followed by the addition of β-phycoerythrin (5 nM) to increase relative fluorescence intensity. After 5 minutes, 2,2′-azobis (2-amidinopropane)dihydrochloride (25 mM, AAPH) was added therein. Subsequently, through a fluorescent spectrometry (Shimadzu RF-5301PC, Japan), the fluorescence intensity of β-phycoerythrin was measured by excitation at 540 nm and emission at 570 nm. Then, the test compounds (5×10^−6 M) was further added therein to observe the variation of the fluorescence intensity, in which 0.1% DMSO was taken as a control group.

[4] = test system: lipid peroxidase, Dunkin Hartley Guinea pig liver microsomes; assay: Activity in inhibiting lipid peroxidase (malondialdehyde quantitation); assay type: biochemical; details: 10 μM, 20 minutes/37° C.
Experimental: The assay was executed with reference to the method described in Biochem Biophys Res Commun. Mar. 28, 1986; 135(3): 1015-21.
• (a) Source: Dunkin Hartley Guinea pig liver microsomes • (b) Substrate: Polyunsaturated fatty acid • (c) Vehicle: 1% DMSO • (d) Pre-Incubation Time/Temp: 15 minutes/37° C. • (e) Incubation Time/Temp: 20 minutes/37° C. • (f) Incubation Buffer: 0.25 M Potassium Phosphate, pH 7.4, 0.1 mM EDTA • (g) Quantitation Method: Spectrophotometric quantitation of Malondialdehyde

[5] = test system: vascular smooth muscle cells of rats; assay: Protecting activity in vascular smooth muscle cells against H2O2 (MTT); assay type: cell-based, rat; details: 10 μM compound, 30 minutes before H2O2 200 μM for 24 hours, FIG. 17
Experimental: The vascular smooth muscle cells of rats (2×10^4 cells/mL×1 mL) were quantitatively seeded in 24-well plates, and cultured in Dulbecco's modified Eagle medium (DMEM) with 10% fetal bovine serum (FBS) for 24 hours to achieve cell adhesion. After cell adhesion, the DMEM medium with 10% fetal bovine serum was replaced with a fresh DMEM medium with 0.1% fetal bovine serum to perform cell culture for 48 hours.
Next, each test compound was added in the cultures (final concentration: 0.1, 1, 10 μM). After 30 minutes, H2O2 (200 μM) was added therein to perform reaction for 24 hours in an incubator. Subsequently, in a light-proof environment, MTT (100 μL) was added into each well to perform reaction at 37° C. for 3 hours. The supernatant liquor was removed and then isopropanol (500 μL) was added, followed by shaking for 10 minutes. After standing for 10 minutes, supernatant liquor (200 μL) was transferred into 96-well plates. Finally, the absorbance value (O.D.) was monitored at 540 nm (OD540) and 630 nm (OD630). Based on the measured absorbance values (OD540-OD630), the effect of these test compounds on cell growth can be evaluated, as shown in FIG. 3.

[6] = HOPE (n=9297), patients with high cardiovascular risk; cited from earlier work
[7] = PROGRESS (n=6105), individuals with cerebrovascular disease; cited from earlier work

Row | Compound | activity in free radical scavenging of APPH in comparison with carboxyl group-containing agent alone and aporphine alone [1] | activity in free radical scavenging of DPPH in comparison with carboxyl group-containing agent alone and thaliporphine alone [2] | other results
1 | CC(=O)NC(CS)C(=O)O.COc1cc2c(cc1O)CC1c3c(cc(OC)c(OC)c3-2)CCN1C (stereo not shown) [acetylcysteine salt of thaliporphine, Acetylcysteine salt of Thaliporphine] | much higher activity | much higher activity | 
2 | COc1cc2c(cc1OC)-c1c(O)c(OC)cc3c1C(C2)N(CC(=O)Nc1c(C)cccc1C)CC3 (stereo not shown) [Compound 2] |  |  | protection of β-phycoerythin from peroxy radical AAPH-induced damage (fluorescence degradation) [3]: can protect β-phycoerythin; Inhibition (%) [4]: 70%; inhibition of H2O2-induced damage to vascular smooth muscle cells [5]: slightly inhibited
3 | salsalate salt of thaliporphine | much higher activity | much higher activity | 
4 | COc1cc2c(cc1OC)-c1c(OC)c(OC)cc3c1C(C2)N(C)CC3.O=C(O)C=Cc1ccc(Cn2ccnc2)cc1 (stereo not shown) [ozagrel salt of glaucine] | much higher activity |  | 
5 | COc1cc2c(cc1OC)-c1c(O)c(OC)cc3c1C(C2)N(CC(O)COc1ccccc1OC)CC3 (stereo not shown) [Compound 1] |  |  | protection of β-phycoerythin from peroxy radical AAPH-induced damage (fluorescence degradation) [3]: can protect β-phycoerythin; Inhibition (%) [4]: 64%; inhibition of H2O2-induced damage to vascular smooth muscle cells [5]: significantly inhibited
6 | Atorvastatin salt of Thaliporphine | much higher activity | much higher activity | 
7 | CCOC(=O)[C@H](CCc1ccccc1)N[C@@H](C)C(=O)N1[C@H](C(=O)O)C[C@@H]2CCC[C@@H]21 [ramipril] |  |  | reduction of composite outcome (cardiovascular death, myocardial infarction and cerebrovascular accident) [6]: 22%
8 | nateglinide salt of thaliporphine | much higher activity | much higher activity | 
9 | Captopril salt of Thaliporphine | much higher activity | much higher activity | 
10 | CCC[C@H](N[C@@H](C)C(=O)N1[C@H](C(=O)O)C[C@@H]2CCCC[C@@H]21)C(=O)OCC [perindopril] |  |  | reduction of recurrent stroke [7]: 28%
11 | bezafibrate salt of thaliporphine | much higher activity | much higher activity | 
12 | Telmisartan salt of Thaliporphine |  | much higher activity | 
